What follows are compounds tested against R132H mutant IDH1 enzyme (Homo sapiens (Human), UniProt O75874, R132H) (assay: R132H IDH1 Enzymatic Assay). Details: 1.5 nM final, 30 min preincubation, 60 min reaction, Kinase-GLO luminescence.
Type: biochemical
Description: R132H IDH1 Enzymatic Assay
Each test compound (10 mM stock in DMSO) is diluted in DMSO to make a 10-point, 3-fold dilution series. 125 nL of each dilution or DMSO alone is dispensed to a 384-well Greiner Lumitrac 200 assay plate using an Echo® Liquid Handler. To each well of the plate is added 20 uL of enzyme in assay buffer or assay buffer alone. Assay buffer consists of 50 mM sodium phosphate, pH 7.0, 50 mM magnesium chloride, 50 mM sodium chloride, and 0.01% (w/v) bovine serum albumin. When present, the R132H mutant IDH1 enzyme is at a working concentration of 1.875 nM (final concentration in assay of 1.5 nM). The assay plate is allowed to incubate for 30 minutes at room temperature and 5 uL of 5× substrate mixture (2.5 uM nicotinamide adenine dinucleotide phosphate, 100 uM adenosine diphosphate, 7.5 mM glyceraldehyde-3-phosphate, 7.5 ug/mL of spinach glyceraldehyde-3-phosphate dehydrogenase, 25 nM phosphoglycerate kinase, and 5 mM alpha-ketoglutarate in assay buffer) is added to all wells. The reaction plate is incubated for 60 minutes followed by addition of 25 uL of Promega Kinase-GLO reagent to all wells and 10-minute incubation.
Luminescence is measured using a PerkinElmer Envision plate reader. The percent activity of each dilution is determined as the ratio of background corrected signal to the background corrected signal of wells receiving only DMSO. IC50 values are determined by fitting percent activity data to a four-parameter logistic dose response equation. The IC50 values of the exemplified compounds are included in Table 8.

Chain of R132H mutant IDH1 enzyme (O75874 whole entry R132H): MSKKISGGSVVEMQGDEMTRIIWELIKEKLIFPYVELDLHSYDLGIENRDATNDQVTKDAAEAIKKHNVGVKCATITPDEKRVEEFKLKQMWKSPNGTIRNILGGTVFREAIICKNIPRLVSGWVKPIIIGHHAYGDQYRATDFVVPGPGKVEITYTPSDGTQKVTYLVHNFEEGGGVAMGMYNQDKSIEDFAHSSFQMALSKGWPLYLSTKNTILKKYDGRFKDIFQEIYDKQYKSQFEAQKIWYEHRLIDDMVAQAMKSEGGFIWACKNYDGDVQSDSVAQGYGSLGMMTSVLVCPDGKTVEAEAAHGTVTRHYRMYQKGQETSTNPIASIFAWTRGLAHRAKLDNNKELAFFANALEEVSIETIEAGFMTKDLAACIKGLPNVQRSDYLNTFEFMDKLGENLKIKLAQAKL

Structure (SMILES)	IC50
O=C(C1CCN(CC(F)(F)F)CC1)N1Cc2cc(F)cnc2Nc2ccc(N3CC4CCC3CO4)cc21 (single isomer, unassigned) [Example 8, (8-(2-oxa-5-azabicyclo[2.2.2]octan-5-yl)-3-fluoro-5,11-dihydro-6H-benzo[b]pyrido[2,3-e][1,4]diazepin-6-yl)(1-(2,2,2-trifluoroethyl)piperidin-4-yl)methanone]	0.0254 µM
CC(C)O[C@H]1CC[C@H](C(=O)N2Cc3cc(F)cnc3Nc3ccc(N4CC5CCC4CO5)cc32)CC1 (single isomer, unassigned) [Example 13, [3-fluoro-8-(2-oxa-5-azabicyclo[2.2.2]oct-5-yl)-5,11-dihydro-6H-pyrido[2,3-b][1,5]benzodiazepin-6-yl][trans-4-(propan-2-yloxy)cyclohexyl]methanone]	0.0355 µM
CC(C)O[C@H]1CC[C@H](C(=O)N2Cc3cc(F)cnc3Nc3ccc(N4CC5CCC4CO5)cc32)CC1 (single isomer, unassigned) [Example 14, [3-fluoro-8-(2-oxa-5-azabicyclo[2.2.2]oct-5-yl)-5,11-dihydro-6H-pyrido[2,3-b][1,5]benzodiazepin-6-yl][trans-4-(propan-2-yloxy)cyclohexyl]methanone]	0.0443 µM
CC(C)O[C@H]1CC[C@H](C(=O)N2Cc3cc(F)cnc3Nc3cc(F)c([C@@H]4COCCO4)cc32)OC1 (single isomer, unassigned) [Example 35]	0.028 µM
CC(C)O[C@H]1CC[C@H](C(=O)N2Cc3cc(F)cnc3Nc3cc(F)c([C@@H]4COCCO4)cc32)OC1 (single isomer, unassigned) [Example 36]	0.0237 µM
CO[C@H]1C[C@H]2CC[C@@H](C1)N2c1ccc2c(c1)N(C(=O)C1CCN(CC(F)(F)F)CC1)Cc1cc(F)cnc1N2 [Example 10, (3-fluoro-8-((1R,3r,5S)-3-methoxy-8-azabicyclo[3.2.1]octan-8-yl)-5,11-dihydro-6H-benzo[b]pyrido[2,3-e][1,4]diazepin-6-yl)(1-(2,2,2-trifluoroethyl)piperidin-4-yl)methanone]	0.0062 µM
C[C@H]1CN(c2ccc3c(c2)N(C(=O)C2CCN(CC(F)(F)F)CC2)Cc2cc(F)cnc2N3)[C@@H](C)CO1 [Example 11, (8-((2S,5S)-2,5-dimethylmorpholino)-3-fluoro-5,11-dihydro-6H-benzo[b]pyrido[2,3-e][1,4]diazepin-6-yl)(1-(2,2,2-trifluoroethyl)piperidin-4-yl)methanone]	0.0238 µM
O=C(C1CCN(CC(F)(F)F)CC1)N1Cc2cc(F)cnc2Nc2ccc(N3CC4(CCCOC4)C3)cc21 [Example 12, (3-fluoro-8-(6-oxa-2-azaspiro[3.5]nonan-2-yl)-5,11-dihydro-6H-benzo[b]pyrido[2,3-e][1,4]diazepin-6-yl)(1-(2,2,2-trifluoroethyl)piperidin-4-yl)methanone]	0.0221 µM
O=C(C1CCN(CC(F)(F)F)CC1)N1Cc2cc(F)cnc2Nc2ccc(N3C[C@H]4COC[C@@H](C3)O4)cc21 [Example 15, (8-((1R,5S)-3,9-dioxa-7-azabicyclo[3.3.1]nonan-7-yl)-3-fluoro-5,11-dihydro-6H-benzo[b]pyrido[2,3-e][1,4]diazepin-6-yl)(1-(2,2,2-trifluoroethyl)piperidin-4-yl)methanone]	0.0834 µM
CC(C)O[C@H]1CC[C@H](C(=O)N2Cc3cc(F)cnc3Nc3ccc(N4CC5(CCCOC5)C4)cc32)CC1 [Example 16, [3-fluoro-8-(6-oxa-2-azaspiro[3.5]non-2-yl)-5,11-dihydro-6H-pyrido[2,3-b][1,5]benzodiazepin-6-yl][trans-4-(propan-2-yloxy)cyclohexyl]methanone]	0.024 µM
CC(C)O[C@H]1CC[C@H](C(=O)N2Cc3cc(F)cnc3Nc3ccc(N4[C@@H]5CO[C@H]6[C@@H]5OC[C@H]64)cc32)CC1 [Example 17, (3-fluoro-8-((3R,3aR,6R,6aR)-hexahydro-3,6-epiminofuro[3,2-b]furan-7-yl)-5,11-dihydro-6H-benzo[b]pyrido[2,3-e][1,4]diazepin-6-yl)(trans-4-isopropoxycyclohexyl)methanone]	0.0284 µM
C[C@H]1CN(c2cc3c(cc2F)Nc2ncc(F)cc2CN3C(=O)C2CCN(CC(F)(F)F)CC2)[C@@H](C)CO1 [Example 23, (8-((2S,5S)-2,5-dimethylmorpholino)-3,9-difluoro-5,11-dihydro-6H-benzo[b]pyrido[2,3-e][1,4]diazepin-6-yl)(1-(2,2,2-trifluoroethyl)piperidin-4-yl)methanone]	0.023 µM

The remaining lines, values ahead:

IC50	Structure (SMILES)
0.0217 µM	O=C(C1CCN(CC(F)(F)F)CC1)N1Cc2cc(F)cnc2Nc2ccc(N3CC4CCC3CO4)cc21 (single isomer, unassigned) [Example 9, (8-(2-oxa-5-azabicyclo[2.2.2]octan-5-yl)-3-fluoro-5,11-dihydro-6H-benzo[b]pyrido[2,3-e][1,4]diazepin-6-yl)(1-(2,2,2-trifluoroethyl)piperidin-4-yl)methanone]
0.012 µM	CC(C)OC1CC[C@H](C(=O)N2Cc3cc(F)cnc3Nc3ccc(N4C[C@@H]5CC[C@H]4CO5)cc32)OC1 (stereo in doubt) [Example 49, (8-((1S,4S)-2-oxa-5-azabicyclo[2.2.2]octan-5-yl)-3-fluoro-5,11-dihydro-6H-benzo[b]pyrido[2,3-e][1,4]diazepin-6-yl)((2R,5R)-5-isopropoxytetrahydro-2H-pyran-2-yl)methanone]
0.0113 µM	O=C(C1CCN(CC(F)(F)F)CC1)N1Cc2cc(F)cnc2Nc2cc(F)c(Cl)cc21 [Example 5, (8-Chloro-3,9-difluoro-5,11-dihydro-6H-benzo[b]pyrido[2,3-e][1,4]diazepin-6-yl)(1-(2,2,2-trifluoroethyl)piperidin-4-yl)methanone]
0.0121 µM	O=C(C1CCN(CC(F)(F)F)CC1)N1Cc2cc(F)cnc2Nc2ccc(N3C[C@@H]4C[C@H]3CO4)cc21 [Example 6, (8-((1S,4S)-2-Oxa-5-azabicyclo[2.2.1]heptan-5-yl)-3-fluoro-5,11-dihydro-6H-benzo[b]pyrido[2,3-e][1,4]diazepin-6-yl)(1-(2,2,2-trifluoroethyl)piperidin-4-yl)methanone]
0.0185 µM	O=C(C1CCN(CC(F)(F)F)CC1)N1Cc2cc(F)cnc2Nc2ccc(N3[C@@H]4CO[C@H]5[C@@H]4OC[C@H]53)cc21 [Example 7, (3-fluoro-8-((3R,3aR,6R,6aR)-hexahydro-3,6-epiminofuro[3,2-b]furan-7-yl)-5,11-dihydro-6H-benzo[b]pyrido[2,3-e][1,4]diazepin-6-yl)(1-(2,2,2-trifluoroethyl)piperidin-4-yl)methanone]
0.0086 µM	CC(C)O[C@H]1CC[C@H](C(=O)N2Cc3cc(F)cnc3Nc3ccc(N4C[C@@H]5C[C@H]4CO5)cc32)CC1 [Example 18, (8-((1S,4S)-2-oxa-5-azabicyclo[2.2.1]heptan-5-yl)-3-fluoro-5,11-dihydro-6H-benzo[b]pyrido[2,3-e][1,4]diazepin-6-yl)(trans-4-isopropoxycyclohexyl)methanone]
0.006 µM	CC(C)O[C@H]1CC[C@@H](C(=O)N2Cc3cc(F)cnc3Nc3ccc(N4C[C@@H]5C[C@H]4CO5)cc32)CC1 [Example 19, (8-((1S,4S)-2-oxa-5-azabicyclo[2.2.1]heptan-5-yl)-3-fluoro-5,11-dihydro-6H-benzo[b]pyrido[2,3-e][1,4]diazepin-6-yl)(cis-4-isopropoxycyclohexyl)methanone]
0.0067 µM	O=C(C1CCN(CC(F)(F)F)CC1)N1Cc2cc(F)cnc2Nc2cc(F)c(N3C[C@@H]4C[C@H]3CO4)cc21 [Example 20, (8-((1S,4S)-2-oxa-5-azabicyclo[2.2.1]heptan-5-yl)-3,9-difluoro-5,11-dihydro-6H-benzo[b]pyrido[2,3-e][1,4]diazepin-6-yl)(1-(2,2,2-trifluoroethyl)piperidin-4-yl)methanone]
0.0045 µM	O=C(C1CCN(CC(F)(F)F)CC1)N1Cc2cc(F)cnc2Nc2cc(F)c(N3CC4(CCCOC4)C3)cc21 [Example 21, (3,9-difluoro-8-(6-oxa-2-azaspiro[3.5]nonan-2-yl)-5,11-dihydro-6H-benzo[b]pyrido[2,3-e][1,4]diazepin-6-yl)(1-(2,2,2-trifluoroethyl)piperidin-4-yl)methanone]
0.0042 µM	O=C(C1CCN(CC(F)(F)F)CC1)N1Cc2cc(F)cnc2Nc2cc(F)c(N3[C@@H]4CO[C@H]5[C@@H]4OC[C@H]53)cc21 [Example 22, (3,9-difluoro-8-((3R,3aR,6R,6aR)-hexahydro-3,6-epiminofuro[3,2-b]furan-7-yl)-5,11-dihydro-6H-benzo[b]pyrido[2,3-e][1,4]diazepin-6-yl)(1-(2,2,2-trifluoroethyl)piperidin-4-yl)methanone]
0.0056 µM	CC(C)O[C@H]1CC[C@H](C(=O)N2Cc3cc(F)cnc3Nc3cc(F)c(N4C[C@@H]5C[C@H]4CO5)cc32)CC1 [Example 24, {3,9-difluoro-8-[(1S,4S)-2-oxa-5-azabicyclo[2.2.1]hept-5-yl]-5,11-dihydro-6H-pyrido[2,3-b][1,5]benzodiazepin-6-yl}[trans-4-(propan-2-yloxy)cyclohexyl]methanone]
